# Reference: the supplement of paper PMC10307832
# Assays:
# Assay in all cases: relative viability (nuclei count vs DMSO), 5 days (fraction); higher = more cells survive
# NCI-H1792 = tested on: NCI-H1792
# Method in brief: (§1)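 Relative viability equals treated-well nuclei counts divided by vehicle-well nuclei counts. Counts came from 4× images of lung cancer cell lines grown in 1536-well plates for 5 days after pin-tool dosing on the day after seeding. Dosing used one drug alone or a fixed anchor-drug dose plus five library-drug doses (not always all listed) in √10 steps, and values are medians of duplicate plates.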
# NCI-H1734 = tested on: NCI-H1734
# Method in brief: as §1
# HCC-366 = tested on: HCC-366
# Method in brief: as §1
# NCI-H2087 = tested on: NCI-H2087
# Method in brief: as §1
# NCI-H661 = tested on: NCI-H661
# Method in brief: as §1
# BEN = tested on: BEN
# Method in brief: as §1
# NCI-H2009 = tested on: NCI-H2009
# Method in brief: as §1
# SK-LU-1 = tested on: SK-LU-1
# Method in brief: as §1
# NCI-H596 = tested on: NCI-H596
# Method in brief: as §1
# HARA = tested on: HARA
# Method in brief: as §1
# LC-2-ad = tested on: LC-2-ad
# Method in brief: as §1
# NCI-H1437 = tested on: NCI-H1437
# Method in brief: as §1
# NCI-H1355 = tested on: NCI-H1355
# Method in brief: as §1
# LOU-NH91 = tested on: LOU-NH91
# Method in brief: as §1
# NCI-H2228 = tested on: NCI-H2228
# Method in brief: as §1
# HCC-827 = tested on: HCC-827
# Method in brief: as §1
# EKVX = tested on: EKVX
# Method in brief: as §1
# NCI-H647 = tested on: NCI-H647
# Method in brief: as §1
# NCI-H2405 = tested on: NCI-H2405
# Method in brief: as §1
smiles,measurement,setting,value
C=C1C(=O)O[C@@H](CCCCCCCC)[C@@H]1C(=O)O [C-75] + CC(C)C[C@H](NC(=O)[C@H](Cc1ccccc1)NC(=O)c1cnccn1)B(O)O [Bortezomib] (partner 0.002 µM),relative viability,NCI-H1792; first compound 0.08 µM,0.979
same,relative viability,NCI-H1792; first compound 0.253 µM,0.881
same,relative viability,NCI-H1792; first compound 0.8 µM,0.845
same,relative viability,NCI-H1792; first compound 2.53 µM,0.295
same,relative viability,NCI-H1792; first compound 8 µM,0.886
same,relative viability,NCI-H1734; first compound 0.08 µM,1.13
same,relative viability,NCI-H1734; first compound 0.253 µM,0.934
same,relative viability,NCI-H1734; first compound 0.8 µM,0.886
same,relative viability,NCI-H1734; first compound 2.53 µM,0.812
same,relative viability,NCI-H1734; first compound 8 µM,0.785
same,relative viability,HCC-366; first compound 0.08 µM,1.07
same,relative viability,HCC-366; first compound 0.253 µM,1.16
same,relative viability,HCC-366; first compound 0.8 µM,0.973
same,relative viability,HCC-366; first compound 8 µM,0.941
same,relative viability,NCI-H2087; first compound 0.08 µM,0.724
same,relative viability,NCI-H2087; first compound 0.253 µM,0.863
same,relative viability,NCI-H2087; first compound 0.8 µM,0.743
same,relative viability,NCI-H2087; first compound 2.53 µM,0.396
same,relative viability,NCI-H2087; first compound 8 µM,0.581
same,relative viability,NCI-H661; first compound 0.08 µM,0.696
same,relative viability,NCI-H661; first compound 0.253 µM,0.873
same,relative viability,NCI-H661; first compound 0.8 µM,0.731
same,relative viability,NCI-H661; first compound 2.53 µM,0.973
same,relative viability,NCI-H661; first compound 8 µM,0.655
same,relative viability,BEN; first compound 0.08 µM,0.847
same,relative viability,BEN; first compound 0.253 µM,0.868
same,relative viability,BEN; first compound 0.8 µM,0.666
same,relative viability,BEN; first compound 2.53 µM,0.639
same,relative viability,BEN; first compound 8 µM,0.653
same,relative viability,NCI-H2009; first compound 0.08 µM,1.03
same,relative viability,NCI-H2009; first compound 0.253 µM,1.06
same,relative viability,NCI-H2009; first compound 0.8 µM,0.927
same,relative viability,NCI-H2009; first compound 2.53 µM,0.826
same,relative viability,NCI-H2009; first compound 8 µM,0.866
same,relative viability,SK-LU-1; first compound 0.08 µM,1.24
same,relative viability,SK-LU-1; first compound 0.253 µM,1.11
same,relative viability,SK-LU-1; first compound 0.8 µM,0.836
same,relative viability,SK-LU-1; first compound 2.53 µM,0.847
same,relative viability,SK-LU-1; first compound 8 µM,0.658
same,relative viability,NCI-H596; first compound 0.08 µM,1.18
same,relative viability,NCI-H596; first compound 0.253 µM,1.18
same,relative viability,NCI-H596; first compound 0.8 µM,0.871
same,relative viability,NCI-H596; first compound 2.53 µM,0.996
same,relative viability,NCI-H596; first compound 8 µM,0.988
same,relative viability,HARA; first compound 0.08 µM,1.14
same,relative viability,HARA; first compound 0.253 µM,1.22
same,relative viability,HARA; first compound 0.8 µM,1.07
same,relative viability,HARA; first compound 8 µM,1.26
same,relative viability,LC-2-ad; first compound 0.08 µM,1.04
same,relative viability,LC-2-ad; first compound 0.253 µM,0.97
same,relative viability,LC-2-ad; first compound 0.8 µM,0.985
same,relative viability,LC-2-ad; first compound 8 µM,0.961
same,relative viability,NCI-H1437; first compound 0.08 µM,0.572
same,relative viability,NCI-H1437; first compound 0.253 µM,0.546
same,relative viability,NCI-H1437; first compound 0.8 µM,0.483
same,relative viability,NCI-H1437; first compound 2.53 µM,0.546
same,relative viability,NCI-H1437; first compound 8 µM,0.455
same,relative viability,NCI-H1355; first compound 0.08 µM,1.24
same,relative viability,NCI-H1355; first compound 0.253 µM,1.28
same,relative viability,NCI-H1355; first compound 0.8 µM,1.07
same,relative viability,NCI-H1355; first compound 2.53 µM,1.1
same,relative viability,NCI-H1355; first compound 8 µM,1.21
same,relative viability,LOU-NH91; first compound 0.08 µM,0.47
same,relative viability,LOU-NH91; first compound 0.253 µM,0.495
same,relative viability,LOU-NH91; first compound 0.8 µM,0.454
same,relative viability,LOU-NH91; first compound 2.53 µM,0.346
same,relative viability,LOU-NH91; first compound 8 µM,0.394
same,relative viability,NCI-H2228; first compound 0.08 µM,0.836
same,relative viability,NCI-H2228; first compound 0.253 µM,1.43
same,relative viability,NCI-H2228; first compound 0.8 µM,0.8
same,relative viability,NCI-H2228; first compound 2.53 µM,0.729
same,relative viability,NCI-H2228; first compound 8 µM,0.746
same,relative viability,HCC-827; first compound 0.08 µM,1.09
same,relative viability,HCC-827; first compound 0.253 µM,0.995
same,relative viability,HCC-827; first compound 0.8 µM,0.972
same,relative viability,HCC-827; first compound 2.53 µM,1.01
same,relative viability,HCC-827; first compound 8 µM,1.08
same,relative viability,EKVX; first compound 0.08 µM,0.996
same,relative viability,EKVX; first compound 0.253 µM,1.09
same,relative viability,EKVX; first compound 0.8 µM,1.17
same,relative viability,EKVX; first compound 2.53 µM,0.947
same,relative viability,EKVX; first compound 8 µM,1.01
same,relative viability,NCI-H647; first compound 0.08 µM,0.836
same,relative viability,NCI-H647; first compound 0.253 µM,1.1
same,relative viability,NCI-H647; first compound 2.53 µM,0.869
same,relative viability,NCI-H647; first compound 8 µM,0.809
same,relative viability,NCI-H2405; first compound 0.08 µM,0.995
same,relative viability,NCI-H2405; first compound 0.253 µM,0.773
same,relative viability,NCI-H2405; first compound 0.8 µM,0.974
same,relative viability,NCI-H2405; first compound 2.53 µM,0.673
same,relative viability,NCI-H2405; first compound 8 µM,0.971
